In brackets after ≈: the same amount, converted by molar mass. Several values for one entry are separate records, joined by “and”; a condition that tells them apart may be missing. Equal entries are not always repeated. Where two headings read alike, the source gives them in different places.
How the values were obtained:
THP-1 cells = experiment: MTS cytotoxicity analysis on THP-1 cells; assay type: cell-based; details: LPS 1 ng/mL and 5-EPP 0-500 μg/mL for 12 hours
Protocol: Cytotoxicity analysis was performed on THP-1 cells treated with various concentrations of 5-EPP using the MTS (3-(4,5-dimethylthiazol-2-yl)-5-(3-carboxymethoxyphenyl)-2-(4-sulfophenyl)-2H-tetrazolium, inner salt) assay (Promega, Madison, Wis.).

[1] = Solubility in water and isotonic saline (Example 9); assay type: physicochemical; details: for solubility: thermodynamic from solid, room temperature, colorless, clear solution, read-out: solubility (soluble at)
Protocol: All solutions were prepared by weighing the chemical, transferring his solid into a polypropylene tube or polystyrene tube and then adding either water or saline to the final desired volume. The compound was dissolved by intermittent mixing with a vortex mixer, gentle heating in a warm water bath (40-45° C.) and sonication (3×15 min.).

TNF-α = experiment: Serum TNF-α (ELISA) in LPS/D-galactosamine model of sepsis (Example 5); assay type: in vivo, mice; details: 90 minutes after the treatment
Protocol: (§1) Mice were treated simultaneously with LPS (10 μg/kg) and D-galactosamine (600 mg/kg) (Galanos C, Freudenberg M A, Reutter W. […] They were anesthetized with halothane and blood was collected at different times by cardiac puncture and centrifuged to separate serum. The serum levels of alanine transaminase (ALT) and aspartate transaminase (AST) were measured by a commercial diagnostic company (Idexx Laboratories). The serum levels of tumor necrosis factor-alpha (TNF-α), interleukin-6 (IL-6) and interleukin-12 (IL-12) were determined by commercially available mouse enzyme-linked immunosorbent assay (ELISA) kits (BD BioSciences, San Jose, Calif.).
(§2) The methodology utilized in Example 4 was used to measure and analyze the serum enzyme data for statistical significance. The serum levels of proinflammatory cytokines between the 5-EPP treated and saline control groups were analyzed for statistical significance by one-way ANOVA and a Tukey's multiple comparison test (Prism™ for Windows 4.02, Graphpad Software, Inc. San Diego, Calif.).

[2] = test system: LPS/D-galactosamine-septic shock; experiment: Lethal LPS/D-galactosamine septic shock in rats (Example 2); assay type: in vivo, Juvenile Sprague-Dawley rats; details: monitored for 66 hours
Protocol: The methodology utilized in Example 1 was used to treat rats. Juvenile Sprague-Dawley rats were induced with LPS/D-galactosamine-septic shock. The animals were monitored for 66 hours after treatment and the resulting data analyzed by the same statistical tests and criteria as in Example 1.

TNF-α in THP-1 cells = experiment: Secreted and cell-associated TNF-α in PMA-transformed THP-1 cells exposed to LPS (ELISA, Example 6); assay type: cell-based, human; details: 3 hr, mean ± SEM, four replicates; for Secreted TNF-α: THP-1, 1 ng/mL LPS; for Cell-associated TNF-α: THP-1 lysate, 1 ng/mL LPS
Protocol: The effects of 5-EPP on secreted and cell associated TNF-α was examined in vitro using phorbol myristate acetate-transformed (PMA; Sigma, St. Louis, Mo.) human monocytic cells, THP-1 (ATCC, Manassas, Va.) according to the technique described by Grattendick et al. (International Immunopharmacology 2008, 8; 679-87). Briefly, cells were incubated for 3 hr on 96-well plates with culture media, 1 ng/mL LPS, or 1 ng/mL LPS 0-200 μg/mL 5-EPP before culture media were collected and analyzed for the presence of secreted TNF-α via a commercially available enzyme-linked immunosorbent assay (ELISA) kit (BD Biosciences, San Diego, Calif.). Separately, identically treated cells were lysed and their cell-associated TNF-α levels were determined via ELISA. All treatment groups were simultaneously compared using one-way ANOVA and Tukey's multiple comparison tests.
The values are expressed in pg/mL as mean±standard error of the mean for four replicates at all concentrations in each case.

[3] = pH of 20 mg/mL solutions (Example 9); assay type: physicochemical
Protocol: The pH of two freshly prepared solutions of the compound each at 20 mg/mL concentration was measured with a calibrated Mettler MP-220 pH meter equipped with a pH electrode (model 413). The pH of the solution made in water averaged 7.4 as compared to solutions made in isotonic saline in which the pH averaged 6.21 using triplicate samples in each case, as shown in the table below.

IL-12 = experiment: Serum IL-12 (ELISA) in LPS/D-galactosamine model of sepsis (Example 5); assay type: in vivo, mice; details: 90 minutes after the treatment
Protocol: as §1, §2

LPS-induced septic shock = experiment: Lethal shock caused by LPS alone, survival of mice (Example 3); assay type: in vivo; details: LPS alone (30 mg/kg), 100 mg/kg i.p., monitored for 4 days
Protocol: The survival of mice subjected to treatment of the agent and LPS alone pursuant to the methodology of Galanos C, Freudenberg M A, Reutter W. Proc Natl Acad Sci USA. 1979 November; 76 (11)5939-43) was observed. This procedure is believed to evoke a pathophysiological response which is more like that observed during septic shock than that caused by the LPS and galactosamine.
All agents were injected simultaneously via the intraperitoneal route and the response compared to a placebo agent (saline).
The animals were monitored for 4 days after treatment and the resulting data analyzed by the same Fisher exact test and criteria as before.

[4] = LD50 estimate after a single intraperitoneal dose (Example 8); assay type: in vivo; details: male, Swiss-Webster, mouse, in vivo, ip; mice; single intraperitoneal dose; sigmoidal curve fit, R^2=0.949
Protocol: (§3) Male Swiss-Webster mice were obtained from standard commercial sources at 7 weeks of age, housed in the laboratory for at least 1 week prior to use and were provided standard mouse chow and water ad libitum. Animals were subjected to a 12 hour/12 hour light-dark cycle.
(§4) Six groups of mice were injected via the intraperitoneal route with 5-EPP (250-500 mg/kg) dissolved in sterile isotonic saline, immediately replaced in their cages and then observed carefully for the next 6-8 hours. A LD50 value was estimated from the mortality data by a non-linear curve fitting program (Prism™ for Windows 4.02).

Male Swiss-Webster mice = experiment: as above; assay type: in vivo
Protocol: as §3, §4

[5] = DI Water, final 5-EPP 20.0 mg/mL
[6] = Isotonic saline, final 5-EPP 20.0 mg/mL
[7] = Isotonic saline, final 5-EPP 20.1 mg/mL

CCc1ccc(=O)n(-c2ccccc2)c1 [5-EPP, 5-ethyl-1-phenyl-2-(1H)-pyridone]
concentration at which cytotoxicity appears (no cytotoxicity below) (THP-1 cells): at least 300 μg/mL | Results (solubility) [1, 5]: soluble | Results (solubility) [1, 6]: soluble | Results (solubility) [1, 7]: soluble | solubility ([1]; saline or isotonic, saline): 20 mg/mL (≈ 100 mM) | precipitation of dissolved compound ([1]; standing at room temperature overnight or following refrigeration): no precipitation was observed | solubility ([1]; water): 20 mg/mL (≈ 100 mM) | concentrations that do not completely dissolve ([1]; water or saline): ≥ 30000 µg/mL | serum level of TNF-α (TNF-α; 12.5 mg/kg): 5,220 ± 1280 pg/mL | serum level of TNF-α (TNF-α; 25 mg/kg): 2,780 ± 481 pg/mL | serum level of TNF-α (TNF-α; 50 mg/kg): 576 ± 79 pg/mL | serum level of TNF-α (TNF-α; 100 mg/kg): 340 ± 34 pg/mL | mortality ([2]; 75 mg/kg): 14.3% mortality | mortality ([2]; 200 mg/kg): 12.5% mortality | Secreted TNF-α (TNF-α in THP-1 cells; 10 μg/mL 5-EPP): 5382.8 ± 91.8 pg/mL | Secreted TNF-α (TNF-α in THP-1 cells; 33 μg/mL 5-EPP): 3261.5 ± 94.1 pg/mL | Secreted TNF-α (TNF-α in THP-1 cells; 100 μg/mL 5-EPP): 2073.7 ± 60.7 pg/mL | Secreted TNF-α (TNF-α in THP-1 cells; 200 μg/mL 5-EPP): 1469.7 ± 58.9 pg/mL | Cell-associated TNF-α (TNF-α in THP-1 cells; 10 μg/mL 5-EPP): 35.4 ± 3.1 pg/mL | Cell-associated TNF-α (TNF-α in THP-1 cells; 33 μg/mL 5-EPP): 25.9 ± 1.6 pg/mL | Cell-associated TNF-α (TNF-α in THP-1 cells; 100 μg/mL 5-EPP): 19.0 ± 0.9 pg/mL | Cell-associated TNF-α (TNF-α in THP-1 cells; 200 μg/mL 5-EPP): 10.1 ± 1.3 pg/mL | pH of the solution, average ([3]; 20 mg/mL in isotonic saline): 6.21 | pH of the solution, average ([3]; 20 mg/mL in water): 7.4 | pH [3, 5]: 7.29 and 7.24 | pH [3, 6]: 6.13 | pH [3, 7]: 6.20 | serum level of IL-12 (IL-12; 50 mg/kg): 2,809 ± 325 pg/mL | serum level of IL-12 (IL-12; 100 mg/kg): 1,371 ± 124 pg/mL | serum level of IL-12 (IL-12; 200 mg/kg): 870 ± 99 pg/mL | mortality (LPS-induced septic shock): 30% mortality | LD50 [4]: 380 mg/kg | time to ataxia, loss of the righting reflex and labored breathing (Male Swiss-Webster mice; highest doses (450-500 mg/kg) ip): ≤ 5 min | absorption and distribution, suggested by rapid onset of symptoms (Male Swiss-Webster mice; intraperitoneal route): rapidly absorbed and distributed across the blood-brain barrier | time over which symptoms gradually lessened until animals appeared unaffected (Male Swiss-Webster mice; lower doses ip): 1 to 2 h | LD100 (Male Swiss-Webster mice; single intraperitoneal dose, raw mortality data): 450 to 500 mg/kg
